The values below come from US9346812B2, “Substituted pyrrolopyrimidine compounds, compositions thereof, and methods of treatment therewith” (Signal Pharmaceutical LLC, priority 2013, dated 2016).

SMILES strings stand for the structures.

The subject of the experiment is CAL51 cell proliferation. As to the kind of experiment: Cell Titer Glo Proliferation Assay (CAL51). The class given is cell-based, human. The settings on record: Homo sapiens, CAL-51; CAL51 cell proliferation, 72 h, Cell Titer Glo luminescence; read-out: Act. Level. As for the experimental part:
Cell Titer Glo Proliferation Assay. Triple negative breast cancer cell line CAL51 was purchased from DSMZ. […] Allcell lines were maintained in growth media consisting of 90% high glucose Dulbecco's Modified Eagle Medium or RPMI1640 (Invitrogen), 10% fetal bovine serum (Hyclone), and 2 mM L-glutamine (Invitrogen). […] After overnight culture, compound stock (30 mM) was diluted serially in DMSO, further diluted in growth media, and was added to each well as a 10× concentrated solution in a volume of 11 μL, mixed, and allowed to incubate with cells. The compound vehicle (DMSO) was maintained at a final concentration of 0.2% in all wells. After 72 h, 100 μL of Cell Titer Glo solution (Promega) was added to each well of the 96-well plate. The plate was placed on a shaker for 2 minutes. After 10 minutes incubation, the luminescence signal was detected with Envision microplate reader (Perkin Elmer).
Background: ATP-based viability assays read luminescence as a measure of living cells.

`CNC(=O)c1ccc(Nc2nc(OC(C)C)c3c(-c4ccnc(OC)c4)c[nH]c3n2)c(OC)c1` [Example 185, 4-(4-isopropoxy-5-(2-methoxypyridin-4-yl)-7H-pyrrolo [2,3-d]pyrimidin-2-ylamino)-3-methoxy-N-methylbenzamide]: the IC50 was less than 100 nM.
In the case of `COc1cc(C(=O)N(C)CC#N)ccc1Nc1nc(OC2CCCC2)c2c(-c3ccc4nc(C)oc4c3)c[nH]c2n1` [Example 263, N-(cyanomethyl)-4-(4-(cyclo-pentyloxy)-5-(2-methylbenzo[d]oxazol-6-yl)-7H-pyrrolo[2,3-d]pyrimidin-2-ylamino)-3-methoxy-N-methylbenzamide], the IC50 is less than 100 nM.
The value for `COc1cc(C(=O)N2CCC(OC)CC2)ccc1Nc1nc(OC2CCCC2)c2c(-c3ccc4nc(C)oc4c3)c[nH]c2n1` [Example 275, (4-(4-(cyclopentyloxy)-5-(2-methylbenzo[d]oxazol-6-yl)-7H-pyrrolo[2,3-d]pyrimidin-2-ylamino)-3-methoxyphenyl)(4-methoxypiperidin-1-yl)methanone] was less than 100 nM.
The value for `COc1cc(C(=O)N(C)CCC#N)ccc1Nc1nc(OC2CCCC2)c2c(-c3ccc4nc(C)oc4c3)c[nH]c2n1` [Example 248, N-(2-cyanoethyl)-4-(4-(cyclo-pentyloxy)-5-(2-methylbenzo[d]oxazol-6-yl)-7H-pyrrolo[2,3-d]pyrimidin-2-ylamino)-3-methoxy-N-methylbenzamide] was less than 100 nM; that for `COc1cc(C(=O)N[C@H]2CCC[C@H]2O)ccc1Nc1nc(OC2CCCC2)c2c(-c3ccc4nc(C)oc4c3)c[nH]c2n1` [Example 264, 4-(4-(cyclopentyloxy)-5-(2-methylbenzo[d]oxazol-6-yl)-7H-pyrrolo[2,3-d]pyrimidin-2-ylamino)-N-((1S,2R)-2-hydroxycyclopentyl)-3-methoxy-benzamide] was 100 to 400 nM; that for `COc1cc(C(=O)N(C)CC(N)=O)ccc1Nc1nc(OC2CCCC2)c2c(-c3ccc4nc(C)oc4c3)c[nH]c2n1` [Example 268, N-(2-amino-2-oxoethyl)-4-(4-(cyclopentyloxy)-5-(2-methylbenzo[d]oxazol-6-yl)-7H-pyrrolo[2,3-d]pyrimidin-2-ylamino)-3-methoxy-N-methylbenzamide] was less than 100 nM.
The value for `CNC(=O)c1ccc(Nc2nc(OC3CCOCC3)c3c(-c4ccc(-c5nc(C)c[nH]5)cc4)c[nH]c3n2)c(OC)c1` [Example 207, 3-methoxy-N-methyl-4-(5-(4-(4-methyl-1H-imidazol-2-yl)phenyl)-4-(tetrahydro-2H-pyran-4-yloxy)-7H-pyrrolo[2,3-d]pyrimidin-2-ylamino)benzamide] was less than 100 nM; that for `CNC(=O)c1ccc(Nc2nc(OC3CCOCC3)c3c(-c4ccncn4)c[nH]c3n2)c(OC)c1` [Example 270, 3-methoxy-N-methyl-4-(5-(pyrimidin-4-yl)-4-(tetrahydro-2H-pyran-4-yloxy)-7H-pyrrolo[2,3-d]pyrimidin-2-ylamino)benzamide] was 100 to 400 nM.
With `COc1cc(C(=O)N(C)CCC(N)=O)ccc1Nc1nc(OC2CCCC2)c2c(-c3ccc4nc(C)oc4c3)c[nH]c2n1` [Example 257, N-(3-amino-3-oxopropyl)-4-(4-(cyclopentyloxy)-5-(2-methylbenzo[d]oxazol-6-yl)-7H-pyrrolo[2,3-d]pyrimidin-2-ylamino)-3-methoxy-N-methylbenzamide], the IC50 is less than 100 nM.
The result for `CNC(=O)c1ccc(Nc2nc(OC3CCCC3)c3c(-c4ccc(N(C)C)cc4)c[nH]c3n2)c(OC)c1` [Example 75, 4-(4-(cyclopentyloxy)-5-(4-(di-methylamino)phenyl)-7H-pyrrolo [2,3-d]pyrimidin-2-ylamino)-3-methoxy-N-methylbenzamide] reads less than 100 nM.
The value for `CNC(=O)c1cccc(-c2c[nH]c3nc(Nc4ccc(C(=O)NC)cc4C)nc(OC4CCOCC4)c23)c1` [Example 144, N,3-dimethyl-4-(5-(3-(methyl-carbamoyl)phenyl)-4-(tetrahydro-2H-pyran-4-yloxy)-7H-pyrrolo[2,3-d]pyrimidin-2-ylamino)benzamide] was 1000 to 10000 nM; that for `CNC(=O)c1cccc(-c2c[nH]c3nc(Nc4ccc(C(=O)NC)cc4OC)nc(OC4CCCC4)c23)c1` [Example 59, 4-(4-(cyclopentyloxy)-5-(3-(methylcarbamoyl)phenyl)-7H-pyrrolo[2,3-d]pyrimidin-2-ylamino)-3-methoxy-N-methylbenzamide] was 100 to 400 nM.
As for `CNC(=O)c1ccc(Nc2nc(OC3CCOCC3)c3c(-c4ccc(OC)nc4)c[nH]c3n2)c(OC)c1` [Example 119, 3-methoxy-4-(5-(6-methoxypyridin-3-yl)-4-(tetrahydro-2H-pyran-4-yloxy)-7H-pyrrolo[2,3-d]pyrimidin-2-ylamino)-N-methylbenzamide], the IC50 was less than 100 nM.
The result for `C[C@H](O)c1cccc(-c2c[nH]c3nc(Nc4ccc(C(=O)N(C)C)cc4Cl)nc(NC4CCOCC4)c23)c1` [Example 85, (S)-3-chloro-4-(5-(3-(1-hydroxy-ethyl)phenyl)-4-(tetrahydro-2H-pyran-4-ylamino)-7H-pyrrolo[2,3-d]pyrimidin-2-ylamino)-N,N-dimethylbenzamide] reads less than 100 nM; that for `COc1cc(C(=O)NC2CC(O)C2)ccc1Nc1nc(OC2CCCC2)c2c(-c3ccc4nc(C)oc4c3)c[nH]c2n1` (centres unmarked) [Example 238, 4-(4-(cyclopentyloxy)-5-(2-methylbenzo[d]oxazol-6-yl)-7H-pyrrolo[2,3-d]pyrimidin-2-ylamino)-N-((1s,3s)-3-hydroxycyclobutyl)-3-methoxybenzamide], less than 100 nM; that for `COc1cc(C(=O)N[C@H]2C[C@H](O)C2)ccc1Nc1nc(OC2CCCC2)c2c(-c3ccc4nc(C)oc4c3)c[nH]c2n1` [Example 239, 4-(4-(cyclopentyloxy)-5-(2-methylbenzo[d]oxazol-6-yl)-7H-pyrrolo[2,3-d]pyrimidin-2-ylamino)-N-((1r,3r)-3-hydroxycyclobutyl)-3-methoxybenzamide], less than 100 nM.
The value for `CNC(=O)c1ccc(Nc2nc(OC3CCCC3)c3c(-c4ccc(OC)cc4)c[nH]c3n2)c(OC)c1` [Example 76, 4-(4-(cyclopentyloxy)-5-(4-methoxyphenyl)-7H-pyrrolo[2,3-d]pyrimidin-2-ylamino)-3-methoxy-N-methylbenzamide] was less than 100 nM; that for `COc1cc(C#N)ccc1Nc1nc(OC2CCCC2)c2c(-c3ccc4nc(C)oc4c3)c[nH]c2n1` [Example 277, 4-(4-(cyclopentyloxy)-5-(2-methylbenzo[d]oxazol-6-yl)-7H-pyrrolo[2,3-d]pyrimidin-2-ylamino)-3-methoxybenzonitrile] was 100 to 400 nM.
As to `CNC(=O)c1ccc(Nc2nc(OC3CCCC3)c3c(-c4ccc(C(=N)N)cc4)c[nH]c3n2)c(OC)c1` [Example 245, 4-(5-(4-carbamimidoylphenyl)-4-(cyclopentyloxy)-7H-pyrrolo[2,3-d]pyrimidin-2-ylamino)-3-methoxy-N-methylbenzamide], the IC50 fell in the range of 1000 to 10000 nM.
In the case of `CNC(=O)c1ccc(OC)c(Nc2nc(OC(C)C)c3c(-c4ccc5nc(C)oc5c4)c[nH]c3n2)c1` [Example 180, 3-(4-isopropoxy-5-(2-methylbenzo[d]oxazol-6-yl)-7H-pyrrolo[2,3-d]pyrimidin-2-ylamino)-4-methoxy-N-methylbenzamide], the IC50 was in the range of 100 to 400 nM.
With `COc1cc(C(=O)NCC2COC2)ccc1Nc1nc(OC2CCCC2)c2c(-c3ccc4nc(C)oc4c3)c[nH]c2n1` [Example 282, 4-(4-(cyclopentyloxy)-5-(2-methylbenzo[d]oxazol-6-yl)-7H-pyrrolo[2,3-d]pyrimidin-2-ylamino)-3-methoxy-N-(oxetan-3-ylmethyl)benzamide], the IC50 was 100 to 400 nM.
The result for `COc1cc(C(=O)N2CCN(C)CC2)ccc1Nc1nc(OC2CCCC2)c2c(-c3ccc4nc(C)oc4c3)c[nH]c2n1` [Example 259, (4-(4-(cyclopentyloxy)-5-(2-methylbenzo[d]oxazol-6-yl)-7H-pyrrolo[2,3-d]pyrimidin-2-ylamino)-3-methoxyphenyl)(4-methylpiperazin-1-yl)methanone] reads less than 100 nM; that for `CNC(=O)c1ccc(Nc2nc(OC3CCOCC3)c3c(-c4cnccn4)c[nH]c3n2)c(OC)c1` [Example 186, 3-methoxy-N-methyl-4-(5-(pyrazin-2-yl)-4-(tetrahydro-2H-pyran-4-yloxy)-7H-pyrrolo[2,3-d]pyrimidin-2-ylamino) benzamide], 100 to 400 nM.
As for `CNC(=O)c1ccc(Nc2nc(OC3CCCC3)c3c(-c4ccc5oc(C)nc5c4)c[nH]c3n2)c(OC)c1` [Example 35, 4-(4-(cyclopentyloxy)-5-(2-methylbenzo[d]oxazol-5-yl)-7H-pyrrolo[2,3-d]pyrimidin-2-ylamino)-3-methoxy-N-methylbenzamide], the IC50 lay within 1000 to 10000 nM.
As to `CNC(=O)c1ccc(-c2c[nH]c3nc(Nc4ccc(C(=O)NC)cc4OC)nc(OC)c23)cc1` [Example 124, 3-methoxy-4-(4-methoxy-5-(4-(methylcarbamoyl)phenyl)-7H-pyrrolo[2,3-d]pyrimidin-2-ylamino)-N-methylbenzamide], the IC50 was in the range of 100 to 400 nM.
Turning to `CNC(=O)c1ccc(Nc2nc(O[C@H]3CC[C@](C)(O)CC3)c3c(-c4ccc5nc(C)oc5c4)c[nH]c3n2)c(OC)c1` [Example 205, 4-(4-((1r,4r)-4-hydroxy-4-methylcyclohexyloxy)-5-(2-methylbenzo[d]oxazol-6-yl)-7H-pyrrolo[2,3-d]pyrimidin-2-ylamino)-3-methoxy-N-methylbenzamide], the IC50 is less than 100 nM.
